Legend:
[1] = tested on: carotid artery thrombosis; test: cynomolgus monkey electrolytic injury-induced carotid artery thrombosis model; assay type: in vivo; settings: arterial thrombosis model in cynomolgus monkeys
[2] = tested on: human washed platelets; test: Alpha-thrombin induced platelet aggregation assay; assay type: cell-based; settings: 0.1 h, read-out: IC50 for the inhibition of platelet aggregation
Method: Example D is an alpha-thrombin-induced platelet aggregation assay. Alpha-thrombin activates both PAR1 and PAR4.
Human blood was collected in ACD (85 mM tri-sodium citrate, 78 mM citric acid, 110 mM D-glucose, pH 4.4) at a ratio of 1.4 ml per 10 ml blood. PRP was isolated by centrifugation at 170 g for 14 minutes and platelets were further pelleted by centrifugation at 1300 g for 6 minutes. Platelets were washed once with 10 ml ACD containing 1 mg/ml bovine serum albumin. Platelets were resuspended at ˜2.5×10^8/ml in Tyrode's Buffer (137 mM NaCl, 2 mM KCl, 1.0 mM MgCl2, 1 mM CaCl2, 5 mM glucose, 20 mM HEPES pH 7.4).
The ability of PAR4 antagonist to inhibit platelet aggregation induced by alpha-thrombin was tested using human washed platelets. […] Aggregation was initiated by addition of 1.5 nM alpha-thrombin (Haematologic Technologies, Essex Junction, Vt.) to 300 μl of washed platelets at stirring speed of 1000 rpm. […] IC50 was calculated using vehicle control as 0% inhibition.

[3] = tested on: carotid artery thrombosis; test: Cynomolgus monkey electrolytic injury-induced carotid artery thrombosis model; assay type: in vivo; settings: oral, 1 to 2 hours before the experiment
Source text: The efficacy of the PAR4 antagonists of the present invention in preventing thrombosis can also be measured in a variety of in vivo assays. Exemplary mammals that can provide models of thrombosis and hemostasis to test the effectiveness of the PAR4 antagonists of the present invention as antithrombotic agents include, but are not limited to, guinea pigs and primates. Relevant efficacy models include, but are not limited to, electrolytic injury-induced carotid artery thrombosis, FeCl3-induced carotid artery thrombosis and arteriovenous-shunt thrombosis. […]
On the day of the study, compounds or vehicles were administered orally at 1 to 2 hours before the experiment. […] Blood pressure and heart rate were monitored to maintain normal vital signs.
Carotid blood flow was measured with an appropriately sized TRANSONIC® flow probe and a TRANSONIC® perivascular flowmeter (TS420 Model, Transonic Systems Inc., Ithaca, N.Y.). It was continuously recorded over a 90-min period to monitor thrombosis-induced occlusion. Integrated carotid blood flow was measured by the area under the flow-time curve. It was expressed as percent of total control carotid blood flow, which would result if control blood flow had been maintained continuously for 90 min. […]

[4] = target: PAR1 (Homo sapiens (Human), UniProt P25116); settings: ACS patients, phase III; cited from earlier work
Sequence of PAR1 (P25116 22-425): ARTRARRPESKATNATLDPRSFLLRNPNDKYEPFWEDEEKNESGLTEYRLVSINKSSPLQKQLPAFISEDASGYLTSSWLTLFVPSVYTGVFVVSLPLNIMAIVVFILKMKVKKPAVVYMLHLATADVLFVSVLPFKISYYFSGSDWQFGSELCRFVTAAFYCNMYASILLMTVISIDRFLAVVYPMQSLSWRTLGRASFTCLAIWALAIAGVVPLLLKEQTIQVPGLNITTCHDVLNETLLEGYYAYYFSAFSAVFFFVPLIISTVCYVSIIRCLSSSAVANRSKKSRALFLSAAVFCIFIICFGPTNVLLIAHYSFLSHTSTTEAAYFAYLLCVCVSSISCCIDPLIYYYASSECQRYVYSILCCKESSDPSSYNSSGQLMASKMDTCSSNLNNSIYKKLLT

SMILES	inhibition of thrombus formation / antithrombotic efficacy [1]	IC50 [2]	antithrombotic efficacy in electrically-induced arterial thrombus model (dose response, FIG. 1C) [3]	cardiovascular events [4]	risk of major bleeding [4]
COc1cc(OCc2csc(-c3ccccc3)n2)c2cc(-c3cn4nc(OC)sc4n3)oc2c1 [Example 3, 2-Methoxy-6-(6-methoxy-4-((2-phenylthiazol-4-yl)methoxy)benzofuran-2-yl)imidazo[2,1-b][1,3,4]thiadiazole]	antithrombotic efficacy	5 nM	in vivo antithrombotic efficacy	–	–
CCOC(=O)N[C@@H]1CC[C@@H]2[C@@H](C1)C[C@H]1C(=O)O[C@H](C)[C@H]1[C@H]2/C=C/c1ccc(-c2cccc(F)c2)cn1 [vorapaxar]	–	–	–	did not significantly reduce	significantly increased
